From US20260092061A1, “COMPOUNDS FOR TARGETED PROTEIN DEGRADATION” (Amphista Therapeutics Limited, priority 2022, published 2026)

What was measured:
BRD9 [1] = molecular target: T1, BRD9 (Homo sapiens, UniProt Q9H8M2); experiment: Degradation of BRD9 (IF), immunofluorescence in MV4-11 cells, 24 hours (Assay Protocol 2); format: cell-based; set-up: A suspension of MV4-11 cells (ATCC CRL-9591) was prepared; host or cells: MV4-11
T1 sequence (Q9H8M2 1-597): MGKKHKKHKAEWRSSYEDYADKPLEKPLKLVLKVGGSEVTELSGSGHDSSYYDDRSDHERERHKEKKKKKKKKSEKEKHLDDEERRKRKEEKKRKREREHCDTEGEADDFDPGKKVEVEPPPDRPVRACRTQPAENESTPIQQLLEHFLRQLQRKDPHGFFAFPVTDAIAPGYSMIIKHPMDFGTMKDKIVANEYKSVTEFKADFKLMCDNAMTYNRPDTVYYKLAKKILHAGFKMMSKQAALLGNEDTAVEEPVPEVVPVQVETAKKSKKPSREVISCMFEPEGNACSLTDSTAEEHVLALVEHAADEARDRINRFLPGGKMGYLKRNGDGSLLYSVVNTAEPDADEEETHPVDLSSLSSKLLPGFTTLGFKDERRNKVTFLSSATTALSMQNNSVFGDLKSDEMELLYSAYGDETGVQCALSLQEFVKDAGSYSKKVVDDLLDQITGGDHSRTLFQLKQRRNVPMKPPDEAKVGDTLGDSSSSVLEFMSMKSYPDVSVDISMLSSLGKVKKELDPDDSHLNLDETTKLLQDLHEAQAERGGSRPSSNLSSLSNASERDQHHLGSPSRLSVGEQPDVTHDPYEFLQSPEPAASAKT
How it was run: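 % BRD9 remaining, scaled between DMSO (high) and 100 nM CFT-8634 (low) control wells, derives from mean Alexa 647 contrast in central nuclei by high-content imaging. MV4-11 cells had 24 h compound exposure at 37° C. before PFA fixation, Triton permeabilisation and anti-BRD9 E4Q3F immunostaining.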

BRD9 [2] = molecular target: T1, BRD9; experiment: BRD9 degradation, HiBiT-BRD9 KI HEK293 (LgBiT) cells, NanoGlo Lytic Endpoint assay (Assay Protocol 1); format: cell-based; settings: BRD9 degradation; for Dmax / Dmax at 1 µM: HEK293; for Dmax at 1 µM: 1 μM compound at 6 h of treatment, read-out: Assay 1 Dmax
How it was run: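 HiBiT-tagged BRD9 knock-in HEK293 (LgBiT) cells exposed to compounds for 6 h at 37 °C, 5% CO2. Residual BRD9 measured by HiBiT lytic luminescence. % BRD9 remaining normalised to DMSO-treated cells (high) and no-cell wells (low).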

[3] = Assay protocol 2, BRD9 degradation, read-out: DC50
[4] = MV4-11, Assay protocol 2, BRD9 degradation, read-out: Dmax
[5] = Assay protocol 1, read-out: DC50
[6] = Assay protocol 1, read-out: Dmax
[7] = MV4-11, 24 h, Table 2, BRD9 degradation (IF), Assay Protocol 2, MV4-11 cells, read-out: Assay 2 DCmax
[8] = Table 2, BRD9 degradation (IF), Assay Protocol 2, MV4-11 cells, read-out: Assay 2 DC50
[9] = Table 2, Assay Protocol 1, 6 h of treatment, read-out: Assay 1 DC50
[10] = MV4-11, Table 4, BRD9 degradation, determined according to Assay Protocol 2, read-out: Dmax^2
[11] = Table 4, BRD9 degradation, determined according to Assay Protocol 2, read-out: DC50^2
[12] = Table 4, determined according to Assay Protocol 1, read-out: Dmax^1
[13] = Table 4, determined according to Assay Protocol 1, read-out: DC50^1

| Structure (SMILES) | DC50 (BRD9 [1]; [3]) | Dmax (BRD9 [1]; [4]) | DC50 (BRD9 [2]; [5]) | Dmax (BRD9 [2]; [6]) | further results |
| --- | --- | --- | --- | --- | --- |
| COc1cc(-c2cn(C)c(=O)c(C)c2C)cc(OC)c1CN(C)Cc1cccc2c1CCN(C(=O)/C(C#N)=C/c1cccc(C(F)(F)F)n1)C2C (mixture of isomers) [Compound B15, (E/Z)-2-(5-(((2,6-dimethoxy-4-(1,4,5-trimethyl-6-oxo-1,6-dihydropyridin-3-yl)benzyl)(methyl)amino)methyl)-1-methyl-1,2,3,4-tetrahydroisoquinoline-2-carbonyl)-3-(6-(trifluoromethyl)pyridin-2-yl)acrylonitrile] | < 1.25 nM | > 75% | 1.25 to 10 nM | > 75% | – |
| COc1cc(-c2cn(C)c(=O)c3cc(C(=O)NCCCCCOc4cccc(C5CCCN5C(=O)/C(C#N)=C/c5nccs5)c4)sc23)cc(OC)c1CN(C)C (mixture of isomers) [Compound A76, (E/Z)—N-(5-(3-(1-(2-cyano-3-(thiazol-2-yl)acryloyl)pyrrolidin-2-yl)phenoxy)pentyl)-7-(4-((dimethylamino)methyl)-3,5-dimethoxyphenyl)-5-methyl-4-oxo-4,5-dihydrothieno[3,2-c]pyridine-2-carboxamide] | – | – | – | – | Dmax (BRD9 [1]; [7]): 70 to 75%; DC50 (BRD9 [1]; [8]): < 1.25 nM; Dmax at 1 µM (BRD9 [2]; Table 2, Assay Protocol 1): 40 to 70%; DC50 (BRD9 [2]; [9]): 25 to 300 nM |
| COc1cc(-c2cn(C)c(=O)c(C)c2C)cc(OC)c1CN1CCN(C(=O)[C@@H]2CN(C(=O)/C(C#N)=C/C(C)(C)C)C[C@H]2C(C)C)CC1 [Compound B212] | – | – | – | – | Dmax (BRD9 [1]; [10]): 50 to 70%; DC50 (BRD9 [1]; [11]): 25 to 200 nM; Dmax (BRD9 [2]; [12]): 50 to 70%; DC50 (BRD9 [2]; [13]): 25 to 200 nM |
| COc1cc(-c2cn(C)c(=O)c3cnccc23)cc(OC)c1CN(C)Cc1ccc2c(c1)CCN(C(=O)/C(C#N)=C/c1cccc(Br)n1)C2C (mixture of isomers) [Compound A66] | – | – | – | – | Dmax (BRD9 [1]; [7]): > 75%; DC50 (BRD9 [1]; [8]): < 1.25 nM; Dmax at 1 µM (BRD9 [2]; Table 2, Assay Protocol 1): 40 to 70%; DC50 (BRD9 [2]; [9]): < 1.25 nM |
| COc1cc(-c2cn(C)c(=O)c(C)c2C)cc(OC)c1CN1CCN(Cc2cccc3c2CCN(C(=O)/C(C#N)=C/C2(C)COC2)C3C)CC1 (mixture of isomers) [Compound A51, (E/Z)-2-[5-[[4-[[2,6-dimethoxy-4-(1,4,5-trimethyl-6-oxo-3-pyridyl)phenyl]methyl]piperazin-1-yl]methyl]-1-methyl-3,4-dihydro-1H-isoquinoline-2-carbonyl]-3-(3-methyloxetan-3-yl)prop-2-enenitrile] | – | – | – | – | Dmax (BRD9 [1]; [7]): 40 to 70%; DC50 (BRD9 [1]; [8]): < 1.25 nM; Dmax at 1 µM (BRD9 [2]; Table 2, Assay Protocol 1): 40 to 70%; DC50 (BRD9 [2]; [9]): 1.25 to 10 nM |
| COc1cc(-c2cn(C)c(=O)c(C)c2C)cc(OC)c1CN1CCN(C(=O)/C(C#N)=C/C(C)(C)C)CC12CC2 [BRD9f, (E/Z)-2-(4-(2,6-dimethoxy-4-(1,4,5-trimethyl-6-oxo-1,6-dihydropyridin-3-yl)benzyl)-4,7-diazaspiro[2.5]octane-7-carbonyl)-4,4-dimethylpent-2-enenitrile] | – | – | – | – | Dmax (BRD9 [1]; [10]): 50 to 70%; DC50 (BRD9 [1]; [11]): < 25 nM; Dmax (BRD9 [2]; [12]): 50 to 70%; DC50 (BRD9 [2]; [13]): < 25 nM |
| CCCC(c1ccc(C(=O)N(C)CCCCCCC(=O)N2CCN(Cc3c(OC)cc(-c4cn(C)c(=O)c(C)c4C)cc3OC)CC2)cc1)N(C)C(=O)/C(C#N)=C/c1nccs1 (mixture of isomers) [Compound B182, (E/Z)-4-(1-(2-cyano-N-methyl-3-(thiazol-2-yl)acrylamido)butyl)-N-(7-(4-(2,6-dimethoxy-4-(1,4,5-trimethyl-6-oxo-1,6-dihydropyridin-3-yl)benzyl)piperazin-1-yl)-7-oxoheptyl)-N-methylbenzamide] | 1.25 to 10 nM | 40 to 70% | 25 to 1000 nM | 40 to 70% | – |
| COc1cc(-c2cn(C)c(=O)c3cnccc23)cc(OC)c1CN1CCN(Cc2cccc3c2CCN(C(=O)/C(C#N)=C/C2(C)CC2)C3C)CC1 (mixture of isomers) [Compound A26, (E/Z)-2-(5-((4-(2,6-dimethoxy-4-(2-methyl-1-oxo-1,2-dihydro-2,7-naphthyridin-4-yl)benzyl)piperazin-1-yl)methyl)-1-methyl-1,2,3,4-tetrahydroisoquinoline-2-carbonyl)-3-(1-methylcyclopropyl)acrylonitrile] | – | – | – | – | Dmax (BRD9 [1]; [7]): 40 to 70%; DC50 (BRD9 [1]; [8]): 25 to 300 nM; Dmax at 1 µM (BRD9 [2]; Table 2, Assay Protocol 1): 40 to 70%; DC50 (BRD9 [2]; [9]): 1.25 to 10 nM |
| COc1cc(-c2cn(C)c(=O)c(C)c2C)cc(OC)c1CN1CC2CC1CN2C(=O)/C(C#N)=C/c1cccc(C(F)(F)F)n1 (mixture of isomers) [BRD9x, (E/Z)-2-(5-(2,6-dimethoxy-4-(1,4,5-trimethyl-6-oxo-1,6-dihydropyridin-3-yl)benzyl)-2,5-diazabicyclo[2.2.1]heptane-2-carbonyl)-3-(6-(trifluoromethyl)pyridin-2-yl)acrylonitrile] | – | – | – | – | Dmax (BRD9 [1]; [10]): > 70%; DC50 (BRD9 [1]; [11]): < 25 nM; DC50 (BRD9 [2]; [13]): < 25 nM |
| COc1cc(-c2cn(C)c(=O)c(C)c2C)cc(OC)c1CN1CCN(CC(=O)NCCOc2ccc3c(c2)CCN(C(=O)/C(C#N)=C/c2nccs2)C3C)CC1 (mixture of isomers) [Compound B31, (E/Z)—N-(2-((2-(2-cyano-3-(thiazol-2-yl)acryloyl)-1-methyl-1,2,3,4-tetrahydroisoquinolin-6-yl)oxy)ethyl)-2-(4-(2,6-dimethoxy-4-(1,4,5-trimethyl-1-oxo-1,6-dihydropyridin-3-yl)benzyl)piperazin-1-yl)acetamide] | 10 to 25 nM | 40 to 70% | – | 40 to 70% | – |

Continued, in another order:

| DC50 (BRD9 [1]; [3]) | Dmax (BRD9 [1]; [4]) | DC50 (BRD9 [2]; [5]) | Dmax (BRD9 [2]; [6]) | Structure (SMILES) | further results |
| --- | --- | --- | --- | --- | --- |
| – | 40 to 70% | 1.25 to 10 nM | 40 to 70% | COc1ccc(/C=C(\C#N)C(=O)N2CCc3c(CN4CCN(Cc5c(OC)cc(-c6cn(C)c(=O)c(C)c6C)cc5OC)CC4)cccc3C2C)nc1 (mixture of isomers) [Compound B53, (E/Z)-2-(5-((4-(2,6-dimethoxy-4-(1,4,5-trimethyl-6-oxo-1,6-dihydropyridin-3-yl)benzyl)piperazin-1-yl)methyl)-1-methyl-1,2,3,4-tetrahydroisoquinoline-2-carbonyl)-3-(5-methoxypyridin-2-yl)acrylonitrile] | – |
| < 1.25 nM | 70 to 75% | < 1.25 nM | > 75% | COc1cc(-c2cn(C)c(=O)c(C)c2C)cc(OC)c1CN1CCC(Oc2cccc(C3CCCN3C(=O)/C(C#N)=C/C(C)(C)C)c2)C1 (mixture of isomers) [Compound B54, (E/Z)-2-(2-(3-(((S)-1-(2,6-dimethoxy-4-(1,4,5-trimethyl-6-oxo-1,6-dihydropyridin-3-yl)benzyl)pyrrolidin-3-yl)oxy)phenyl)pyrrolidine-1-carbonyl)-4,4-dimethylpent-2-enenitrile] | – |
| 1.25 to 10 nM | 40 to 70% | – | 40 to 70% | CCCC(c1cccc(C(=O)N2CCN(Cc3c(OC)cc(-c4cn(C)c(=O)c(C)c4C)cc3OC)CC2)c1)N(C)C(=O)/C(C#N)=C/c1nccs1 (mixture of isomers) [Compound B184, (E/Z)-2-cyano-N-(1-(3-(4-(2,6-dimethoxy-4-(1,4,5-trimethyl-6-oxo-1,6-dihydropyridin-3-yl)benzyl)piperazine-1-carbonyl)phenyl)butyl)-N-methyl-3-(thiazol-2-yl)acrylamide] | – |
| – | 40 to 70% | – | 25 to 40% | COc1cc(-c2cn(C)c(=O)c(C)c2C)cc(OC)c1CN1CCN(C(=O)[C@@H]2CN(C(=O)/C(C#N)=C/c3nccs3)C[C@H]2c2ccccc2)CC1 [Compound B28] | – |
| 1.25 to 10 nM | 40 to 70% | 1.25 to 10 nM | > 75% | COc1cc(-c2cn(C)c(=O)c(C)c2C)cc(OC)c1CN1CCN(Cc2cccc3c2CCN(C(=O)/C(C#N)=C/C2CCOC2)C3C)CC1 (mixture of isomers) [Compound B94, (E/Z)-2-(5-((4-(2,6-dimethoxy-4-(1,4,5-trimethyl-6-oxo-1,6-dihydropyridin-3-yl)benzyl)piperazin-1-yl)methyl)-1-methyl-1,2,3,4-tetrahydroisoquinoline-2-carbonyl)-3-(tetrahydrofuran-3-yl)acrylonitrile] | – |
| – | 40 to 70% | – | > 75% | COc1cc(-c2cn(C)c(=O)c(C)c2C)cc(OC)c1CN1CCC(Oc2cccc3c2CCN(C(=O)/C(C#N)=C/c2cccc(C(F)(F)F)n2)C3C)CC1 (centres unmarked) [B22] | – |
